Source: ChEMBL document CHEMBL1201862, “PubChem BioAssay data set” (2004)
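How tested: cells in 96-well plates exposed to compound for 48 hours at five concentrations. GI50 is the concentration that inhibits growth by half.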 Calls of active or inactive are those of the source. Cut-off read from the data, not from the text of the source: active = GI50 up to about 1.1 µM and inactive = higher.

Legend:
Test in all cases: NCI tumour cell line growth inhibition, 48 h
SK-MEL-2 = system: SK-MEL-2
UACC-257 = system: UACC-257
SK-MEL-28 = system: SK-MEL-28
MOLT-4 = system: MOLT-4
PC-3 = system: PC-3
OVCAR-8 = system: OVCAR-8
SK-MEL-5 = system: SK-MEL-5
MDA-MB-231 = system: MDA-MB-231
RPMI-8226 = system: RPMI-8226
HCT-116 = system: HCT-116
U-251 = system: U-251
HT-29 = system: HT-29
SW-620 = system: SW-620
MDA-MB-435 = system: MDA-MB-435
SNB-19 = system: SNB-19
T47D = system: T47D
EKVX = system: EKVX
NCI-H23 = system: NCI-H23
SF-295 = system: SF-295

Measured: GI50

COC(=O)c1ccc(OCc2ccc3nc(-c4ccccc4)c(Cl)nc3c2)cc1
inactive: SK-MEL-2 84.7 µM | UACC-257 > 100 µM | SK-MEL-28 > 100 µM | MOLT-4 91.6 µM | PC-3 > 100 µM | OVCAR-8 48 µM | SK-MEL-5 76.6 µM | MDA-MB-231 23.2 µM | RPMI-8226 > 100 µM | HCT-116 83 µM | U-251 27.7 µM | HT-29 > 100 µM | SW-620 > 100 µM | MDA-MB-435 74.8 µM | SNB-19 92.5 µM | T47D > 100 µM | EKVX > 100 µM | NCI-H23 47.2 µM | SF-295 46 µM

CN(C)/C=C1\CCc2ccc([N+](=O)[O-])cc2C1=O
inactive: SK-MEL-2 > 100 µM | UACC-257 19.1 µM | SK-MEL-28 > 100 µM | MOLT-4 25.1 µM | PC-3 30.6 µM | OVCAR-8 45.7 µM | SK-MEL-5 92.9 µM | MDA-MB-231 17.4 µM | RPMI-8226 27.4 µM | HCT-116 17.9 µM | U-251 75.7 µM | HT-29 24.3 µM | SW-620 32.1 µM | MDA-MB-435 19.1 µM | SNB-19 > 100 µM | T47D 26.7 µM | EKVX > 100 µM | NCI-H23 53.6 µM | SF-295 > 100 µM

COc1cc(C2SCC(=O)N2c2ccc(Cl)c(Cl)c2)cc(OC)c1OC (stereo not drawn)
inactive: SK-MEL-2 30.2 µM | UACC-257 32.6 µM | SK-MEL-28 > 50.9 µM | MOLT-4 14.7 µM | PC-3 54.2 µM | OVCAR-8 60.5 µM | SK-MEL-5 21.7 µM | MDA-MB-231 > 64.4 µM | RPMI-8226 31.8 µM | HCT-116 25.5 µM | U-251 47.3 µM | HT-29 23.1 µM | SW-620 48 µM | MDA-MB-435 11.1 µM | SNB-19 > 100 µM | T47D 10.6 µM | EKVX 25.5 µM | NCI-H23 69.5 µM | SF-295 29.8 µM

NC(=O)SCC(=O)Nc1ccc2cccc3c2c1CC3
inactive: SK-MEL-2 17.1 µM | UACC-257 21.1 µM | SK-MEL-28 > 10 µM | MOLT-4 19.8 µM | PC-3 4.4 µM | OVCAR-8 63.4 µM | SK-MEL-5 26.8 µM | MDA-MB-231 6.76 µM | RPMI-8226 20.9 µM | HCT-116 15.5 µM | U-251 5.33 µM | HT-29 29.7 µM | SW-620 12.2 µM | MDA-MB-435 17.4 µM | SNB-19 99.3 µM | T47D 21.9 µM | EKVX > 100 µM | NCI-H23 23.7 µM | SF-295 21.1 µM

C=C1[C@@H](OC(C)=O)/C=C/C2C3C(=O)[C@@](C)(OC(C)=O)[C@H]([C@H](OC(C)=O)[C@]4(O)[C@@H](C)C(=O)O[C@H]4[C@H]1Cl)[C@@]23C (stereo partly drawn)
inactive: SK-MEL-2 > 100 µM | UACC-257 > 100 µM | SK-MEL-28 > 100 µM | MOLT-4 > 100 µM | PC-3 > 100 µM | OVCAR-8 > 100 µM | SK-MEL-5 > 100 µM | MDA-MB-231 > 100 µM | RPMI-8226 > 100 µM | HCT-116 > 100 µM | U-251 > 100 µM | HT-29 > 100 µM | SW-620 > 100 µM | MDA-MB-435 > 100 µM | SNB-19 > 100 µM | T47D > 100 µM | EKVX > 100 µM | NCI-H23 > 100 µM | SF-295 > 100 µM

Oc1[nH]c(Nc2ccc(F)c(Cl)c2)nc2ncnc1-2
inactive: SK-MEL-2 > 100 µM | UACC-257 > 100 µM | SK-MEL-28 > 100 µM | MOLT-4 7.29 µM | PC-3 > 100 µM | OVCAR-8 > 100 µM | SK-MEL-5 > 100 µM | MDA-MB-231 > 100 µM | RPMI-8226 > 100 µM | HCT-116 > 100 µM | U-251 99.1 µM | HT-29 > 100 µM | SW-620 > 100 µM | MDA-MB-435 > 100 µM | SNB-19 > 100 µM | T47D > 100 µM | EKVX > 100 µM | NCI-H23 > 100 µM | SF-295 > 100 µM

COc1ccc(-c2nc3ccc(C)cc3o2)c(OC)c1
inactive: SK-MEL-2 24.6 µM | UACC-257 17.7 µM | SK-MEL-28 55.7 µM | MOLT-4 11.3 µM | PC-3 24.3 µM | OVCAR-8 26.4 µM | SK-MEL-5 19.3 µM | MDA-MB-231 19.8 µM | RPMI-8226 19.5 µM | HCT-116 17.9 µM | U-251 1.63 µM | HT-29 5.28 µM | SW-620 29.3 µM | MDA-MB-435 21.6 µM | SNB-19 7.41 µM | T47D 30.1 µM | EKVX 19.6 µM | NCI-H23 27.8 µM | SF-295 19.9 µM
